The source of these data is US20100105031A1, “METHOD FOR PREDICTION OF THE EFFICACY OF VASCULARIZATION INHIBITOR” (Esai R & D Management Co., Ltd., priority 2005, published 2010).

The test system of test [1] is MDA-MB-468. As to the kind of experiment: Antitumor effect in human cancer cell line subcutaneously transplanted model (MDA-MB-468). It counts as in vivo, nude mouse. From the text: (§1) Human cancer cell lines A375 (purchased from Dainippon Pharma Co., Ltd.), SEKI, HMV-1 (these two lines were purchased from JCRB cell bank, National Institute of Biomedical Innovation), FEM (granted from Dr. Fodstad, The Norwegian Radiumhospital Research Foundation), LOX (purchased from AntiCancer), AZ-521 (purchased from Japan Health Science Foundation), MDA-MB-468, DLD-1, HCT116, SW620, PC-3, DU145, AsPC-1, H526, MDA-MB-231, SK-Mel-2, Lovo and A431 (these 12 lines were purchased from ATCC) were cultured with RPMI1640 (containing 10% FBS) in a 5% CO2 incubator until they reached about 80% confluence. After culturing, cells from each line w ere recovered with trypsin-EDTA by conventional procedures. The cells were suspended in phosphate buffer solution to prepare a cell suspension of 1×10^8 cells/ml or 5×10^7 cells/ml. Subsequently, 0.1 ml of the cell suspension was subcutaneously transplanted on the lateral side of each nude mouse. After transplantation, when the tumor volume reached about 100-200 mm^3, administration of 4-(3-chloro-4-(cyclopropylaminocarbonyl)-aminophenoxy)-7-methoxy-6-quinolinecarboxamide was started (100 mg/kg; twice a day; one week; oral administration). […] The major axis and minor axis of tumor were measured with a Degimatic Caliper (Mitsutoyo). Then, tumor volume and ΔT/C were calculated using the following formulas: […]

Test [2] has as its system MDA-MB-231. The test can be described thus: Antitumor effect in human cancer cell line subcutaneously transplanted model (MDA-MB-231). It counts as in vivo, nude mouse.
Description: as §1

In test [3] the test system is DU145. As to the kind of experiment: Antitumor effect in human cancer cell line subcutaneously transplanted model (DU145). Format: in vivo, nude mouse.
Description: as §1

Test [4] has as its system AZ-521. The test can be described thus: Antitumor effect in human cancer cell line subcutaneously transplanted model (AZ-521). Format: in vivo, nude mouse.
Description: as §1

For test [5], the system named is Lovo. The test can be described thus: Antitumor effect in human cancer cell line subcutaneously transplanted model (Lovo). It counts as in vivo, nude mouse.
Description: as §1

The subject of test [6] is SK-Mel-2. As to the kind of experiment: Antitumor effect in human cancer cell line subcutaneously transplanted model (SK-Mel-2). It counts as in vivo, nude mouse.
Description: as §1

The subject of test [7] is AsPC-1. As to the kind of experiment: Antitumor effect in human cancer cell line subcutaneously transplanted model (AsPC-1). It counts as in vivo, nude mouse.
Description: as §1

For test [8], the system named is A431. As to the kind of experiment: Antitumor effect in human cancer cell line subcutaneously transplanted model (A431). It counts as in vivo, nude mouse.
Description: as §1

For test [9], the system named is SW620. As to the kind of experiment: Antitumor effect in human cancer cell line subcutaneously transplanted model (SW620). It counts as in vivo, nude mouse.
Description: as §1

The subject of test [10] is DLD-1. As to the kind of experiment: Antitumor effect in human cancer cell line subcutaneously transplanted model (DLD-1). Format: in vivo, nude mouse.
Description: as §1

Test [11] deals with HCT116. As to the kind of experiment: Antitumor effect in human cancer cell line subcutaneously transplanted model (HCT116). Format: in vivo, nude mouse.
Description: as §1

For test [12], the system named is A375. The test can be described thus: Antitumor effect in human cancer cell line subcutaneously transplanted model (A375). Format: in vivo, nude mouse.
Description: as §1

Test [13] has as its system LOX. As to the kind of experiment: Antitumor effect in human cancer cell line subcutaneously transplanted model (LOX). Format: in vivo, nude mouse.
Description: as §1

The subject of test [14] is HMV-1. As to the kind of experiment: Antitumor effect in human cancer cell line subcutaneously transplanted model (HMV-1). It counts as in vivo, nude mouse.
Description: as §1

Test [15] deals with SEKI. The test can be described thus: Antitumor effect in human cancer cell line subcutaneously transplanted model (SEKI). Format: in vivo, nude mouse.
Description: as §1

For test [16], the system named is FEM. The test can be described thus: Antitumor effect in human cancer cell line subcutaneously transplanted model (FEM). It counts as in vivo, nude mouse.
Description: as §1

Test [17] concerns PC-3. As to the kind of experiment: Antitumor effect in human cancer cell line subcutaneously transplanted model (PC-3). Format: in vivo, nude mouse.
Description: as §1

In test [18] the test system is H526. The test can be described thus: Antitumor effect in human cancer cell line subcutaneously transplanted model (H526). Format: in vivo, nude mouse.
Description: as §1

Test [19] deals with AsPC-1. The test can be described thus: Example 3 antitumor effect, relative tumor volume, subcutaneously transplanted model (AsPC-1). Format: in vivo, nude mouse. To be noted: FIG. 2. Here is the method:
(§2) Human cancer cell lines AsPC-1 and H526 (both strains were purchased from ATCC) were cultured with RPMI1640 (containing 10% FBS) in a 5% CO2 incubator until they reached about 80% confluence. After culturing, cells from each strain were recovered with trypsin-EDTA by conventional procedures. The cells were suspended in phosphate buffer to prepare a cell suspension of 5×10^7 cells/ml. Subsequently, 0.1 ml of the cell suspension was subcutaneously transplanted on the lateral side of each nude mouse. After transplantation, when the tumor volume reached about 50-200 mm^3, administration of 5-(5-fluoro-2-oxo-1,2-dihydroindole-3-ylidenemethyl)-2,4-dimethyl-1H-pyrrole-3-carboxylic acid (2-diethylaminoethyl)amide (100 mg/kg, once a day, one week, oral administration) was started. The 5-(5-fluoro-2-oxo-1,2-dihydroindole-3-ylidenemethyl)-2,4-dimethyl-1H-pyrrole-3-carboxylic acid (2-diethylaminoethyl)amide was prepared based on the disclosure in WO 01/060814. The major axis and minor axis of tumor were measured with a Degimatic Caliper (Mitsutoyo). Then, tumor volume and relative tumor volume were calculated using the following formulas:
(§3) Tumor volume(TV)=tumor major axis(mm)×tumor minor axis^2(mm^2)/2
(§4) Relative tumor volume(RTV)=tumor volume on the measurement day/tumor volume on the starting day of administration

Test [20] deals with H526. The test can be described thus: Example 3 antitumor effect, relative tumor volume, subcutaneously transplanted model (H526). It counts as in vivo, nude mouse. Particulars: FIG. 2. The method, then:
as §2, §3, §4

The test system of test [21] is colorectal cancer. To be noted: clinical trials; cited from earlier work.
Setting [22] is: class by intensity of antitumor effect (ΔT/C).
The mark [23] stands for this setting: Melanoma, 100 mg/kg twice a day, one week, oral, day 8 vs day 1.
The mark [24] stands for this setting: Compound 1 administration group.
Where [25] appears, read: Compound 2 administration group, 100 mg/kg once a day, one week, oral.

Turning to `COc1cc2nccc(Oc3ccc(NC(=O)NC4CC4)c(Cl)c3)c2cc1C(N)=O` [Compound 1, 4-(3-chloro-4-(cyclopropylaminocarbonyl)aminophenoxy)-7-methoxy-6-quinolinecarboxamide], the ΔT/C is −53% in test [1] (MDA-MB-468, Breast cancer, 100 mg/kg twice a day, one week, oral, day 8 vs day 1); −33% in test [2] (MDA-MB-231, Breast cancer, 100 mg/kg twice a day, one week, oral, day 8 vs day 1); −60% in [3] (DU145, Prostate cancer, 100 mg/kg twice a day, one week, oral, day 8 vs day 1); −57% in test [4] (AZ-521, Gastric cancer, 100 mg/kg twice a day, one week, oral, day 8 vs day 1); −11% in [5] (Large bowel cancer, 100 mg/kg twice a day, one week, oral, day 8 vs day 1); −2.5% in [6] (SK-Mel-2, Melanoma, 100 mg/kg twice a day, one week, oral, day 8 vs day 1). For the same compound, the ΔT/C in test [7] (AsPC-1, Pancreatic cancer, 100 mg/kg twice a day, one week, oral, day 8 vs day 1) is −8%; in test [8] (A431, Epidermoid carcinoma, 100 mg/kg twice a day, one week, oral, day 8 vs day 1), −8%; in [9] (SW620, Large bowel cancer, 100 mg/kg twice a day, one week, oral, day 8 vs day 1), 22%; in [10] (DLD-1, Large bowel cancer, 100 mg/kg twice a day, one week, oral, day 8 vs day 1) it was 52%; in test [11] (HCT116, Large bowel cancer, 100 mg/kg twice a day, one week, oral, day 8 vs day 1), 17%; in test [12] (A375, Melanoma, 100 mg/kg twice a day, one week, oral, day 8 vs day 1), 26%. In addition, the ΔT/C in [13] (setting [23]) stood at 42%; in test [14] (HMV-1, Melanoma, 100 mg/kg twice a day, one week, oral, day 8 vs day 1) it was 19%; in test [15] (setting [23]), 110%; in test [16] (setting [23]), 55%; in test [17] (PC-3, Prostate cancer, 100 mg/kg twice a day, one week, oral, day 8 vs day 1), 54%; in [18] (H526, Small cell lung cancer, 100 mg/kg twice a day, one week, oral, day 8 vs day 1), 22%. Besides, the Classification result was “Shrinkage line (Cancer cell lines which showed ΔT/C<−30% were classified as shrinkage lines)” in test [1] (MDA-MB-468, class by intensity of antitumor effect (ΔT/C)); “Shrinkage line (Cancer cell lines which showed ΔT/C<−30% were classified as shrinkage lines)” in [2] (MDA-MB-231, class by intensity of antitumor effect (ΔT/C)); “Shrinkage line (Cancer cell lines which showed ΔT/C<−30% were classified as shrinkage lines)” in test [3] (DU145, class by intensity of antitumor effect (ΔT/C)); “Shrinkage line (Cancer cell lines which showed ΔT/C<−30% were classified as shrinkage lines)” in test [4] (AZ-521, class by intensity of antitumor effect (ΔT/C)); “Rest line (cancer cell lines which showed −30%<ΔT/C<10% were classified as rest lines)” in test [5] (setting [22]); “Rest line (cancer cell lines which showed −30%<ΔT/C<10% were classified as rest lines)” in test [6] (SK-Mel-2, class by intensity of antitumor effect (ΔT/C)). The Classification entry in [7] (AsPC-1, class by intensity of antitumor effect (ΔT/C)) is on record as “Rest line (cancer cell lines which showed −30%<ΔT/C<10% were classified as rest lines)”; in test [8] (A431, class by intensity of antitumor effect (ΔT/C)), “Rest line (cancer cell lines which showed −30%<ΔT/C<10% were classified as rest lines)”; in test [9] (SW620, class by intensity of antitumor effect (ΔT/C)) it was “Proliferation line (cancer cell lines which showed 10%<ΔT/C were classified as proliferation lines)”; in test [10] (DLD-1, class by intensity of antitumor effect (ΔT/C)), “Proliferation line (cancer cell lines which showed 10%<ΔT/C were classified as proliferation lines)”; in test [11] (HCT116, class by intensity of antitumor effect (ΔT/C)), “Proliferation line (cancer cell lines which showed 10%<ΔT/C were classified as proliferation lines)”; in [12] (A375, class by intensity of antitumor effect (ΔT/C)), “Proliferation line (cancer cell lines which showed 10%<ΔT/C were classified as proliferation lines)”. Besides, the Classification result in [13] (setting [22]) is given as “Proliferation line (cancer cell lines which showed 10%<ΔT/C were classified as proliferation lines)”; in test [14] (HMV-1, class by intensity of antitumor effect (ΔT/C)), “Proliferation line (cancer cell lines which showed 10%<ΔT/C were classified as proliferation lines)”; in [15] (setting [22]), “Proliferation line (cancer cell lines which showed 10%<ΔT/C were classified as proliferation lines)”; in test [16] (setting [22]), “Proliferation line (cancer cell lines which showed 10%<ΔT/C were classified as proliferation lines)”; in test [17] (PC-3, class by intensity of antitumor effect (ΔT/C)), “Proliferation line (cancer cell lines which showed 10%<ΔT/C were classified as proliferation lines)”; in test [18] (H526, class by intensity of antitumor effect (ΔT/C)) it was “Proliferation line (cancer cell lines which showed 10%<ΔT/C were classified as proliferation lines)”. Further, the tumor proliferation result in [19] (setting [24]) is recorded as “rested”; in test [20] (setting [24]), “delayed”.

For the compound `CCN(CC)CCNC(=O)c1c(C)[nH]c(/C=C2\C(=O)Nc3ccc(F)cc32)c1C` [Compound 2, 5-(5-fluoro-2-oxo-1,2-dihydroindole-3-ylidenemethyl)-2,4-dimethyl-1H-pyrrole-3-carboxylic acid (2-diethylaminoethyl)amide, reference compound], the tumor proliferation result in [19] (setting [25]) is given as “rested”; in [20] (setting [25]), “delayed”.

Take “bevacizumab: human anti-VEGF monoclonal antibody sold by Genentech as Avastin”: the antitumor effect entry in test [21] is given as “shown an antitumor effect”.
